Broadly, the IC50 is the concentration at which inhibition is half-maximal. The low end stands for greater potency, the high end for weaker potency.

This test has as its target VEGFR2 (KDR/Flk-1) (Homo sapiens, UniProt P35968). The test is described as follows: ELISA-based in vitro VEGFR2 tyrosine kinase assay (HTScan VEGFR2 kinase assay kit). It counts as biochemical. For orientation: ELISA stands for enzyme-linked immunosorbent assay.

Sequence of VEGFR2 (KDR/Flk-1) (P35968 20-1356): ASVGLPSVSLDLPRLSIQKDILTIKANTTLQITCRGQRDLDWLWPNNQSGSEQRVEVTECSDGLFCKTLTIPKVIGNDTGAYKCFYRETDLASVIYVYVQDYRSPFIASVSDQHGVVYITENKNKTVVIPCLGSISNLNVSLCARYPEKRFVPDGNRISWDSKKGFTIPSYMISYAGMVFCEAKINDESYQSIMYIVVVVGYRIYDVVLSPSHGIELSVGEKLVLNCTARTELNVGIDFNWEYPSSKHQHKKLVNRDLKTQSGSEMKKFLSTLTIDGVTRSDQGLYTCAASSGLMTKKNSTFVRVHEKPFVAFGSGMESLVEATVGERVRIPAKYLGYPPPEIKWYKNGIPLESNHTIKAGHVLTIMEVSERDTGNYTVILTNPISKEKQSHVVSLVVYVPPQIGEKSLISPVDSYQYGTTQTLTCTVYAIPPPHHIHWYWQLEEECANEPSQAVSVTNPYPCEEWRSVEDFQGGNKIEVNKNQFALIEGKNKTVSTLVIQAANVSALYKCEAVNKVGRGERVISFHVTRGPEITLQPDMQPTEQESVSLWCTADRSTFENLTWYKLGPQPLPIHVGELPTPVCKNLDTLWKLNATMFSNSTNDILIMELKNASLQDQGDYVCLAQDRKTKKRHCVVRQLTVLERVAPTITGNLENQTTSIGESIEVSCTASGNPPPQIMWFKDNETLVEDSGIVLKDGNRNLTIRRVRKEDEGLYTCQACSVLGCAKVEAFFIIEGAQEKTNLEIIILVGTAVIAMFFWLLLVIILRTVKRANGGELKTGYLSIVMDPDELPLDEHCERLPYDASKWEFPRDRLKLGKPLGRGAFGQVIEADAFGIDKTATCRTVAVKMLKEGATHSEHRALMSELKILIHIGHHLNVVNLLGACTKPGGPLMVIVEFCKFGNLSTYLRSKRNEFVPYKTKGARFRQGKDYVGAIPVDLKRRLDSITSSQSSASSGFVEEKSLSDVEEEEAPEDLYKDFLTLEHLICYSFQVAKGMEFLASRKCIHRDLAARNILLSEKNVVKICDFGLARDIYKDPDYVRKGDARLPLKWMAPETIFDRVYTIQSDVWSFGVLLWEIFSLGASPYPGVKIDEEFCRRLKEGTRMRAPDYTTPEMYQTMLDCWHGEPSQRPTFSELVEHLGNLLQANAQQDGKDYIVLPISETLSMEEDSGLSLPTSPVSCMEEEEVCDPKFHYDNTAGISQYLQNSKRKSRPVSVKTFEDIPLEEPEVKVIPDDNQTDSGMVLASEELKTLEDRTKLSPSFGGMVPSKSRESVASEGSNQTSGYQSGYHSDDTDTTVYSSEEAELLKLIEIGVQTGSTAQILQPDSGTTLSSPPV

Compound `O=c1c(O)c(-c2ccc(O[C@@H]3O[C@H](CO)[C@@H](O)[C@H](O)[C@H]3O)c(O)c2)oc2cc(O)cc(O)c12` [QODG, Quercetin-4′-O-β-D-glucopyranoside] displayed an IC50 of 20.1 nM.

These data come from paper PMC3278463, “Quercetin-4′-O-β-D-glucopyranoside (QODG) Inhibits Angiogenesis by Suppressing VEGFR2-Mediated Signaling in Zebrafish and Endothelial Cells” (PLoS ONE, 2012).
